{"source": "patent US9079854B2", "about": "(priority 2007, dated 2015)", "key": {"[1]": {"biological_target": "T1, human CB2 (hCB2) receptor (Homo sapiens, UniProt P34972)", "T1 construct": "expressed in transfected cells; host or cells: CHO (Chinese hamster ovary) cells, membranes", "T1 sequence (P34972 whole entry)": "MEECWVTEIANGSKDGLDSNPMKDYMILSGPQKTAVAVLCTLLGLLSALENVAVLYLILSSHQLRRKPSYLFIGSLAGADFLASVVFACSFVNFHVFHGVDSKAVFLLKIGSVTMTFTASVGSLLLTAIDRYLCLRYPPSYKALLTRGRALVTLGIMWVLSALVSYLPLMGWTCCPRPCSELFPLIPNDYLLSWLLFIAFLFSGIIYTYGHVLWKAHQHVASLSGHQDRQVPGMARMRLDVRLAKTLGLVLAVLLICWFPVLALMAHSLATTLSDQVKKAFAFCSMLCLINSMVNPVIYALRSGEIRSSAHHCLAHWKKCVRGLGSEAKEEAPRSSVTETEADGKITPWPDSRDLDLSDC", "experiment": "CB2 binding assay, competitive binding of [3H]WIN 55212-2", "in_short": "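CHO cell membranes expressing hCB2 (15 μg protein) incubated 120 min at 37° C with 0.8 nM [3H]WIN 55212-2 in 50 mM HEPES/Tris pH 7.4, 5 mM MgCl2, 2.5 mM EGTA, 0.1% BSA; nonspecific binding with 10 μM WIN 55212-2. Filtration and scintillation counting; compounds at 1 μM, reported as % inhibition of control specific binding.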"}, "exploratory behavior": {"system": "exploratory behavior", "experiment": "Open field chamber testing", "type": "in vivo, rat", "conditions": "15 mg/kg i.p.; versus vehicle; scored for 60 minutes; rats", "protocol": "The automated open-field chamber (Med Associates ENV-515 Test Environment, St. Albans, Vt.) 43.2×43.2×30.5 cm (L×W×H) equipped with three pairs of 16 infrared arrays that continually monitored the animal's movement was used to determine potential CNS effects of compound of Example 6 and the vehicle in naïve rats. Rats were individually tested 15 min after i.p. drug administration. The infrared beams were set 2.5 cm apart horizontally and at a height of 3 cm above the floor, with the rearing array set at 12 cm from the floor. The area in the box was divided into 4 equal quadrants (zones), with data collected within each quadrant and across quadrants (zone entries). An ambulatory movement was defined as a motion of at least 5 cm and was coded by quadrant. Vertical movements were counted when the rat moved vertically a minimum of 12 cm from the floor. Zone entries were defined as an entry into a zone (from another zone). Entry into a zone was counted when the rat was far enough into the zone to break 2 sets of photoelectric beams for the new zone beams during an ambulatory movement."}, "[2]": {"system": "Paclitaxel-induced neuropathy", "experiment": "Prevention of paclitaxel-induced neuropathy", "type": "in vivo, rat", "conditions": "15 mg/kg intraperitoneally 30 minutes prior to paclitaxel; rats", "protocol": "A mixture of saline and CREMOPHOR®ELP 10% was used as vehicle for paclitaxel. It was injected at a concentration of 1.0 mg/kg intraperitoneally to the chemotherapy-treated group of rats on 4 consecutive days for a final cumulative dose of 4 mg/kg to 18 rats.\nAssessment of neuropathic pain. Paw withdrawal thresholds were determined daily in both hind paws of each animal using calibrated von Frey monofilaments according to an up-down procedure. A series of von Frey filaments with exponentially incremental degrees of stiffness (0.4, 0.7, 1.2, 2.0, 3.6, 5.5, 8.5, and 15.1 g) was used to measure the 50% threshold for both hindpaw withdrawal in awake, unrestrained rats. Chaplan, S. R., Quantitative assessment of tactile allodynia in the rat paw, Journal of Neuroscience Methods, 1994, 53:55-63. […]\nGroup 1 of rats received paclitaxel for four days, as described immediately above in subpart (A) titled “Paclitaxel-induced Neuropathy.” In group 2, a dose of 15 mg/kg of the compound of Example 6, injected intraperitoneally was administered 30 minutes prior to the administration of paclitaxel. […] Paw withdrawal thresholds were determined daily in both hind paws of each animal using calibrated von Frey monofilaments according to an up-down procedure as described immediately above in subpart (A) titled “Paclitaxel-induced Neuropathy.” The results are shown in FIG. 14."}, "CB1": {"biological_target": "CB1 (Homo sapiens, UniProt P21554)", "sequence (P21554 whole entry)": "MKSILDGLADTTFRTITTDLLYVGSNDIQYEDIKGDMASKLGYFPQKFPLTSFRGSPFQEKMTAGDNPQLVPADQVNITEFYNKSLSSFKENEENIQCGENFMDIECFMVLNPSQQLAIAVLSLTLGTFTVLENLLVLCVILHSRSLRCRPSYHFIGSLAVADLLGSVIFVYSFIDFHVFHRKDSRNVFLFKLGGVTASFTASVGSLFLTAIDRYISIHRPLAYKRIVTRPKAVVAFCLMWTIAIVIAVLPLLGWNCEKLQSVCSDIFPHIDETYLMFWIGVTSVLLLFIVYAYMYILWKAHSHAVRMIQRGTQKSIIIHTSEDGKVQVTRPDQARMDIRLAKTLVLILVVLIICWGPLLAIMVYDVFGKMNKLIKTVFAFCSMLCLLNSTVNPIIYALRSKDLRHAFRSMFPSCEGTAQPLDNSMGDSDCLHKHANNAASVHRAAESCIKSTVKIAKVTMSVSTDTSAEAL", "experiment": "CB1 functional assay, [35S]GTP-γ-S binding", "type": "biochemical", "set-up": "purchased ES-110-MG; host or cells: CHO membrane extracts", "protocol": "A dose response curve was generated at eight concentrations in duplicate on CB1 and CB2 in light of reference agonists.\nMembranes (CB1, ES-110-MG or CB2, ES-111-MG) are mixed with GDP (volume:volume) and incubated for at least […] on ice. In parallel, […] are mixed with the beads (volume:volume) just before starting the reaction. The following reagents are successively added in the wells of an Optiplate: 50 μl of ligand, 20 μl of the membranes:GDP mix, 10 μl of assay buffer for agonist testing and 20 μl of the […]: beads mix. The plates are covered with a topseal, shaken on an orbital shaker for 2 min, and then incubated between 30 to 60 min at room temperature. Then the plates are centrifuged for 10 min at 2000 rpm, incubated at room temperature between 1 to 4 hours and counted for 1 min with a PerkinElmer TopCount reader.\nFunctional activity for acyl hydrazone was evaluated using [^35S]GTP-γ-S assay in CHO membrane extracts expressing recombinant hCB1 receptor or hCB2 receptor. The assay relies on the binding of [^35S]GTP-γ-S, a radiolabeled nonhydrolyzable GTP analogue, to the G protein upon binding of an agonist of the G-protein-coupled receptor. In this system, agonists stimulate [^35S]GTP-γ-S binding whereas neutral antagonist have no effect and inverse agonists decrease [^35S]GTP-γ-S basal binding.\nCB1 and CB2 assay data are presented as the mean of two determinations. […] For replicate determinations, the maximum variability tolerated in the test was of ±20% around the average of the replicates."}}, "note": "Entries after “also recorded” stand apart in the source; their conditions may differ. Read-outs that look alike come from different tables or passages of the source."}
{"smiles": "CCCCCCN1C(=O)/C(=N\\NC(=O)c2ccccc2)c2ccccc21", "note": "[Example 6, Benzoic acid [1-n-hexyl-2-oxo-1,2-dihydro-indol-3-ylidene]-hydrazide]", "values": [{"measurement": "% Inhibition of Control Specific Binding", "setting": "[1]; CB2, Test Concentration 1.0E−05 (MD)", "value": 93, "unit": "%"}, {"measurement": "% of Control Specific Binding 1st", "setting": "[1]; CB2, Test Concentration 1.0E−05 (MD), 1st determination", "value": "−1.5", "unit": "%"}, {"measurement": "% of Control Specific Binding 2nd", "setting": "[1]; CB2, Test Concentration 1.0E−05 (MD), 2nd determination", "value": 15.9, "unit": "%"}, {"measurement": "% of Control Specific Binding Mean", "setting": "[1]; CB2, Test Concentration 1.0E−05 (MD), mean", "value": 7.2, "unit": "%"}, {"measurement": "% Inhibition of Control Specific Binding CB2", "setting": "[1]; Table 4, concentration not given", "value": 93, "unit": "%"}, {"measurement": "inhibition at 1 µM", "setting": "[1]; read-out: % inhibition hCB2 receptor, at 1 μM, specific binding of [3H]-WIN55212-2, CHO membranes", "value": "92.8 ± 8.7", "unit": "%"}, {"measurement": "inhibition at 10 µM", "setting": "[1]; read-out: % inhibition hCB2 receptor, at 10 μM, specific binding of [3H]-WIN55212-2", "value": "92.8 ± 8.7", "unit": "%"}, {"measurement": "exploratory behavior in the open field (distance traveled, ambulatory time, vertical activity, zone entries)", "setting": "exploratory behavior", "value": "No significant differences; also recorded: did not decrease the exploratory behavior"}, {"measurement": "development of paclitaxel-induced peripheral neuropathy (paw withdrawal threshold)", "setting": "[2]", "value": "prevented the development of neuropathic pain induced by paclitaxel"}, {"measurement": "% Activation Average", "setting": "CB1; CB1 Functional Activity", "value": 59.65, "unit": "%"}, {"measurement": "Compound Activity", "setting": "CB1; CB1 Functional Activity", "value": "Agonist"}, {"measurement": "EC50", "setting": "CB1; CB1 Functional Activity, read-out: EC50 (nM) for GTP Binding", "value": 867, "unit": "nM"}, {"measurement": "EC50", "setting": "CB1; Table 7, mean of two determinations, read-out: [35S]GTP-γ-S (hCB1) EC50 (nM ± SEM)", "value": "867 ± 1.1", "unit": "nM"}, {"measurement": "Emax", "setting": "CB1; Table 7, relative to the efficacy of CP55940", "value": 59.7, "unit": "%"}, {"measurement": "EC50", "setting": "CB1; Table 9, mean of two determinations, read-out: [35S]GTP-γ-S hCB1 EC50 (nM ± SEM)", "value": "867 ± 1.1", "unit": "nM"}, {"measurement": "Emax", "setting": "CB1; Table 9, relative to the efficacy of CP 55,940", "value": 59.7, "unit": "%"}]}
